Numbered stars: 1 amine (or outer) side, 2 acyl side, 3 side chain; on linkers, the order of the positions; unused ones are H or OH. Square brackets hold non-standard residues; d marks the D form. Peptide text beside a SMILES is read from it. X2 = O=C([C@@H](Cc1ccc(C(F)(F)OP(=O)(O)O)cc1)N[*:1])[*:2]; X1 = O=C([C@H](Cc1ccc(C(F)(F)OP(=O)(O)O)cc1)N[*:1])[*:2]; Pmp = N[C@@H](Cc1ccc(CP(=O)(O)O)cc1)C(=O)O; pY = N[C@@H](Cc1ccc(OP(=O)(O)O)cc1)C(=O)O; Nle = CCCC[C@H](N)C(=O)O

The values below come from ChEMBL document CHEMBL1127941, “Norleucine as a replacement for methionine in phosphatase-resistant linear and cyclic peptides which bind to p85 SH2 domains” (Bioorg Med Chem Lett, 1994).

The nature of this test: Binding affinity to Phosphatidylinositol 3-kinase C-terminal p85 SH2 domain.

`CCCC[C@H](NC(=O)[C@@H]1CCCN1C(=O)[C@@H](NC(=O)C(Cc1ccc(CP(=O)(O)O)cc1)NC(=O)CN)C(C)C)C(=O)N[C@@H](CC(C)C)C(=O)O` (single isomer, unassigned) returned an ID50 of 109 µM.

The compound `CSCC[C@H](NC(=O)[C@@H]1CCCN1C(=O)[C@@H](NC(=O)C(Cc1ccc(CP(=O)(O)O)cc1)NC(=O)CN)C(C)C)C(=O)N[C@@H](CC(C)C)C(=O)O` (single isomer, unassigned) came in with an ID50 of 29.4 µM.

Turning to `CCCC[C@H](NC(=O)[C@@H]1CCCN1C(=O)[C@@H](NC(=O)[C@H](Cc1ccc(CP(=O)(O)O)cc1)NC(=O)CN)C(C)C)C(=O)N[C@@H](CC(C)C)C(=O)O` (H-G[Pmp]VP[Nle]L-OH), the ID50 turned out to be 1.6 µM.

For `CSCC[C@@H]1NC(=O)[C@H]2CCCN2C(=O)[C@H](C(C)C)NC(=O)[C@@H](Cc2ccc(COP(=O)(O)O)cc2)NC(=O)CNC(=O)[C@@H](CC(C)C)NC1=O`, the ID50 came to 5.2 µM.

On to `CSCC[C@H](NC(=O)[C@@H]1CCCN1C(=O)[C@@H](NC(=O)[C@H](Cc1ccc(CP(=O)(O)O)cc1)NC(=O)CN)C(C)C)C(=O)N[C@@H](CC(C)C)C(=O)O` (H-G[Pmp]VPML-OH), for which the ID50 was determined as 0.98 µM.

Consider `CSCC[C@H](NC(=O)[C@@H]1CCCN1C(=O)[C@@H](NC(=O)[C@H](Cc1ccc(OP(=O)(O)O)cc1)NC(=O)CN)C(C)C)C(=O)N[C@@H](CC(C)C)C(=O)O` (H-G[pY]VPML-OH), for which the ID50 is 0.17 µM.

Compound `CSCC[C@@H]1NC(=O)[C@@H]2CCCN2C(=O)[C@H](C(C)C)NC(=O)[C@@H](Cc2ccc(C(F)(F)OP(=O)(O)O)cc2)NC(=O)CNC(=O)[C@H](CC(C)C)NC1=O` (cyclo(G[X2]VPML)) had an ID50 of 32.4 µM.

The compound `CSCC[C@@H]1NC(=O)[C@@H]2CCCN2C(=O)[C@H](C(C)C)NC(=O)[C@H](Cc2ccc(C(F)(F)OP(=O)(O)O)cc2)NC(=O)CNC(=O)[C@H](CC(C)C)NC1=O` (cyclo(G[X1]VPML)) had an ID50 of 2.24 µM.

Turning to `CSCC[C@@H]1NC(=O)[C@H]2CCCN2C(=O)[C@H](C(C)C)NC(=O)[C@@H](Cc2ccc(OP(=O)(O)O)cc2)NC(=O)CNC(=O)[C@@H](CC(C)C)NC1=O`, the ID50 stood at 1.01 µM.

For `CCCC[C@@H]1NC(=O)[C@@H]2CCCN2C(=O)[C@H](C(C)C)NC(=O)[C@H](Cc2ccc(C(F)(F)OP(=O)(O)O)cc2)NC(=O)CNC(=O)[C@H](CC(C)C)NC1=O` (cyclo(G[X1]VP[Nle]L)), the ID50 was 8.9 µM.

Regarding `CCCC[C@@H]1NC(=O)[C@@H]2CCCN2C(=O)[C@H](C(C)C)NC(=O)[C@@H](Cc2ccc(C(F)(F)OP(=O)(O)O)cc2)NC(=O)CNC(=O)[C@H](CC(C)C)NC1=O` (cyclo(G[X2]VP[Nle]L)), the ID50 turned out to be 59.1 µM.

Compound `CCCC[C@@H]1NC(=O)[C@H]2CCCN2C(=O)[C@H](C(C)C)NC(=O)[C@@H](Cc2ccc(OP(=O)(O)O)cc2)NC(=O)CNC(=O)[C@@H](CC(C)C)NC1=O` showed an ID50 of 15.6 µM.
